Entries after “also recorded” stand apart in the source; their conditions may differ.
Columns and labels:
[1] = system: GSK-3β activity (phosphorylation of glycogen synthase); assay: Western immunoblot of glycogen synthase phosphorylation in cells; assay type: cell-based; conditions: BXPC3, 5 and 26 at 5 μM, 6-36 h, 27 at 5, 10, 20 μM
[2] = system: NFκB-mediated expression of XIAP; assay: Western immunoblot of XIAP expression; assay type: cell-based; conditions: BXPC3; 5 and 26 at 5 μM; 27 up to 20 μM
[3] = system: BXPC3 and HupT3 pancreatic cancer cells; assay: Apoptosis by Hoechst staining; assay type: cell-based; conditions: 5 (5 μM), 26 (5 μM), 27 (20 μM), 36 h
[4] = system: pancreatic cancer cells (MiaPaCa-2, BXPC3, HupT3); assay: Pancreatic cancer cell proliferation; assay type: cell-based; conditions: for antiproliferative activity in pancreatic cancer cells: MiaPaCa-2, BXPC3, HupT3
[5] = system: pancreatic cancer cells (MiaPaCa-2, BXPC3, HupT3); conditions: BXPC3, HupT3 and MiaPaCa-2; shown earlier; cited from earlier work
[6] = Storage stability at rt; assay type: physicochemical; conditions: few weeks at rt

Question: With `COc1cccc2c(C3=C(c4cn(C)c5cc(I)c(F)cc45)C(=O)NC3=O)coc12` [Compound 5, 3-(5-Fluoro-6-iodo-1-methyl-1H-indol-3-yl)-4-(7-methoxy-benzofuran-3-yl)-pyrrole-2,5-dione] as the compound, how does the “GSK-3β activity in cells (GS phosphorylation)” value [1] read?
Answer: effectively inhibited

Question: What about the “NFκB-mediated expression of XIAP” value [2] of the same compound?
Answer: pronounced decrease

Question: And the “apoptosis / survival of pancreatic cancer cells” value [3]?
Answer: significant apoptosis

Question: And the “antiproliferative activity in pancreatic cancer cells” value (“antiproliferative activity” for short) [4]?
Answer: good antiproliferative activity

Question: And the “concentrations showing significant anticancer activity” value ([4]; pancreatic cancer cells)?
Answer: 1 to 5 µM

Question: For `Cn1cc(C2=C(c3coc4ccc(F)cc34)C(=O)NC2=O)c2cc3c(cc21)OCO3` [Compound 26, 3-(5-Fluoro-benzofuran-3-yl)-4-(5-methyl-5H-[1,3]dioxolo[4,5-f]indol-7-yl)-pyrrole-2,5-dione], which “GSK-3β activity in cells (GS phosphorylation)” value [1] is on record?
Answer: effectively inhibited

Question: What about the “NFκB-mediated expression of XIAP” value [2] of the same compound?
Answer: pronounced decrease

Question: And the “apoptosis / survival of pancreatic cancer cells” value [3]?
Answer: significant apoptosis

Question: And the “antiproliferative activity” value [4]?
Answer: good antiproliferative activity

Question: For `Cn1cc(C2=C(c3coc4ccccc34)C(=O)NC2=O)c2cc(Br)ccc21` [Compound 13], which “antiproliferative activity” value [4] is on record?
Answer: little or no inhibitory activity

Question: For `Cn1cc(C2=C(c3coc4ccccc34)C(=O)NC2=O)c2cc(I)ccc21` [Compound 21, 3-Benzofuran-3-yl-4-(5-iodo-1-methyl-1H-indol-3-yl)-pyrrole-2,5-dione], which “antiproliferative activity” value [4] is on record?
Answer: little or no inhibitory activity

Question: Which “pancreatic cancer cell proliferation” value [5] does the source give for `Cn1cc(C2=C(c3ccc(Cl)cc3Cl)C(=O)NC2=O)c2ccccc21` [Compound 78] here?
Answer: significant decrease

Question: For `Cn1cc(C2=C(c3coc4ccc(F)cc34)C(=O)NC2=O)c2cc(I)ccc21` [Compound 22, 3-(5-Fluoro-benzofuran-3-yl)-4-(5-iodo-1-methyl-1H-indol-3-yl)-pyrrole-2,5-dione], which “antiproliferative activity” value [4] is on record?
Answer: little or no inhibitory activity

Question: For `Cn1cc(C2=C(c3coc4ccccc34)C(=O)NC2=O)c2cc(F)c(Cl)cc21` [Compound 6, 3-Benzofuran-3-yl-4-(6-chloro-5-fluoro-1-methyl-1H-indol-3-yl)-pyrrole-2,5-dione], which “antiproliferative activity” value [4] is on record?
Answer: good antiproliferative activity

Question: With `C#CCOc1ccc2c(C3=C(c4cn(C)c5ccc(Br)cc45)C(=O)NC3=O)coc2c1` [Compound 16, 3-(5-Bromo-1-methyl-1H-indol-3-yl)-4-(6-prop-2-ynyloxy-benzofuran-3-yl)-pyrrole-2,5-dione] as the compound, how does the stability on storage [6] read?
Answer: Partially degradated after few weeks at rt

Question: With `COc1cccc2c(C3=C(c4cn(C)c5c(Br)cc(Br)cc45)C(=O)NC3=O)coc12` [Compound 20, 3-(5,7-Dibromo-1-methyl-1H-indol-3-yl)-4-(7-methoxy-benzofuran-3-yl)-pyrrole-2,5-dione] as the compound, how does the “antiproliferative activity” value [4] read?
Answer: good antiproliferative activity

Question: With `COCc1cccc2c(C3=C(c4coc5ccccc45)C(=O)NC3=O)cn(C)c12` [Compound 33, 3-Benzofuran-3-yl-4-(7-methoxymethyl-1-methyl-1H-indol-3-yl)-pyrrole-2,5-dione] as the compound, how does the “antiproliferative activity” value [4] read?
Answer: little or no inhibitory activity

Question: With `Cn1cc(C2=C(c3coc4ccc(F)cc34)C(=O)NC2=O)c2cc(C#CC3CC3)ccc21` [Compound 25, 3-(5-Cyclopropylethynyl-1-methyl-1H-indol-3-yl)-4-(5-fluoro-benzofuran-3-yl)-pyrrole-2,5-dione] as the compound, how does the “antiproliferative activity” value [4] read?
Answer: little or no inhibitory activity

Question: What does the source list for `COc1cc2c(C3=C(c4coc5ccccc45)C(=O)NC3=O)cn(C)c2cc1Cl` [Compound 27, 3-Benzofuran-3-yl-4-(6-chloro-5-methoxy-1-methyl-1H-indol-3-yl)-pyrrole-2,5-dione]?
Answer: GSK-3β activity in cells (GS phosphorylation) [1]: did not affect; NFκB-mediated expression of XIAP [2]: no such effect; apoptosis / survival of pancreatic cancer cells [3]: did not affect; antiproliferative activity in pancreatic cancer cells [4]: did not affect; also recorded: little or no inhibitory activity

Question: With `COc1ccc(CNC(=O)Nc2ncc([N+](=O)[O-])s2)cc1` [Compound 77] as the compound, how does the “pancreatic cancer cell proliferation” value [5] read?
Answer: significant decrease

Question: For `COc1cccc2c(C3=C(c4cn(C)c5cc(Cl)c(F)cc45)C(=O)NC3=O)coc12` [Compound 11, 3-(6-Chloro-5-fluoro-1-methyl-1H-indol-3-yl)-4-(7-methoxy-benzofuran-3-yl)-pyrrole-2,5-dione], which “antiproliferative activity” value [4] is on record?
Answer: good antiproliferative activity

Question: Which stability on storage [6] does the source give for `Cn1cc(C2=C(c3coc4cc(O)ccc34)C(=O)NC2=O)c2cc(F)ccc21` [Compound 4, 3-(5-Fluoro-1-methyl-1H-indol-3-yl)-4-(6-hydroxy-benzofuran-3-yl)-pyrrole-2,5-dione] here?
Answer: Partially degradated after few weeks at rt

Source: paper PMC2665923 (Journal of medicinal chemistry, 2009)
